Test results: publication PMC10583239 (CPT: Pharmacometrics & Systems Pharmacology, 2023)

Assay: Clinical DDI cohort: midazolam with pomotrelvir 1050 mg b.i.d.
[1] = 1 mg midazolam alone, Day 1, N = 8
[2] = midazolam + pomotrelvir 1050 mg twice daily, Day 6
[3] = midazolam + pomotrelvir 1050 mg twice daily, Day 11

Structure (SMILES)	AUCinf geometric mean [1] [ng·h/mL]	AUClast geometric mean [1] [ng·h/mL]	Cmax geometric mean [1] [ng/mL]	AUCinf geometric mean ratio (MDZ + POMO)/(MDZ) (Day 6 vs Day 1)	AUClast geometric mean ratio (MDZ + POMO)/(MDZ) (Day 6 vs Day 1)	Cmax geometric mean ratio (MDZ + POMO)/(MDZ) (Day 6 vs Day 1)	AUCinf geometric mean ratio (MDZ + POMO)/(MDZ) (Day 11 vs Day 1)	AUClast geometric mean ratio (MDZ + POMO)/(MDZ) (Day 11 vs Day 1)	Cmax geometric mean ratio (MDZ + POMO)/(MDZ) (Day 11 vs Day 1)	AUCinf geometric mean [2] [ng·h/mL]	AUClast geometric mean [2] [ng·h/mL]	Cmax geometric mean [2] [ng/mL]	AUCinf geometric mean [3] [ng·h/mL]	AUClast geometric mean [3] [ng·h/mL]	Cmax geometric mean [3] [ng/mL]	Cmax (both, human, plasma, oral, 1 mg) [ng/mL]
OCc1ncc2n1-c1ccc(Cl)cc1C(c1ccccc1F)=NC2 [1‐OH‐midazolam, 1‐hydroxy‐midazolam]	4.76	4.72	1.36	0.65	0.62	0.53	0.56	0.56	0.58	3.09	2.87	0.73	2.66	2.64	0.8	–
Cc1ncc2n1-c1ccc(Cl)cc1C(c1ccccc1F)=NC2 [Midazolam, midazolam, reference compound]	–	–	–	1.48	1.51	1.09	1.33	1.36	1.09	–	–	4.44	–	–	4.44	4.06
